Test results: US5128346A, “Derivatives of D-glutamic acid and D-aspartic acid” (priority 1990, dated 1992)
Where a name gives a salt, the structure may show the parent alone. Read-outs that look alike come from different tables or passages of the source.

Columns and labels:
guinea pig acini = test: Inhibition of CCK8-stimulated amylase release from acini; format: cell-based; conditions: Cavia porcellus, 0.5 h, CCK8 3×10^-10 M, 37° C., 30 min
Protocol: Protocol for Amylase This assay was performed using the modified protocol of Lin et al., J. Pharmacol. Exp. Ther. 236, 734, 1986. 1. Guinea Pig Acini Preparation Guinea pig acini were prepared by the method of Bruzzone et al. (Biochem. J. 226, 621-624, 1985) as follows. Pancreas was dissected out and connective tissues and blood vessels were removed. The pancreas was cut into small pieces (2mm) by a scissor and placed in a 15 mL conical plastic tube containing 2.5 mL of Krebs Ringer HEPES (KRH) buffer plus 400 units per mL of collagenase. The composition of the KRH buffer was: HEPES, 12.5 mM: NaCl, 118 mM; KCI, 4.8 mM; CaCl2, 1 mM; […]; MgSO4, 1.2 mM; NaHCO3, 5 mM; glucose, 10 mM, pH 7.4. The buffer was supplemented with MEM vitamins, 1% MEM amino acids and 0.001% aprotinin. The tube was shaken by hand until the suspension appeared homogeneous, usually 5 to 6 min. 5 mL of the KRH, without collagenase and with 0.1% BSA, were added and the tube was centrifuged at 50×g for 35 sec. The supernatant was discarded and 6 mL of the KRH were added to the cell pellet. […] This wash procedure was repeated once. The cell pellet from the last centrifugation step was then resuspended in 15 mL of KRH containing 0.1% BSA. The contents were filtered through a dual nylon mesh, size 275 and 75 micrometers. The filtrate, containing the acini, were centrifuged at 50×for 3 min. The acini were then resuspended in 5 mL of KRH-BSA buffer for 30 min at 37° C., under 100% O2, with a change of fresh buffer at 15 min. 2. Amylase Assay After the 30 min incubation time, the acini were resuspended in 100 volumes of KRH-BSA buffer, containing 3 microM phosphoramidon and 100 microM bestatin. […] The final assay volume was 500 microliters. Tubes were vortexed and placed in a 37° C. water bath, under 100% O2, for 30 min. Afterward, tubes were centrifuged at 10,000 g for 1 min. […] The results of this assay are […]

Type-A CCK receptor = target: T1, Type-A CCK receptor (Cavia porcellus, UniProt Q63931); test: Radioligand binding, [^125 I]-BH-CCK8, Type-A CCK receptor (pancreatic membranes); set-up: species or system guinea pig
T1 construct: cortex and pancreas were removed and rinsed with ice cold saline; from tissue; host or cells: guinea pig pancreas, membranes
T1 sequence (Q63931 1-430): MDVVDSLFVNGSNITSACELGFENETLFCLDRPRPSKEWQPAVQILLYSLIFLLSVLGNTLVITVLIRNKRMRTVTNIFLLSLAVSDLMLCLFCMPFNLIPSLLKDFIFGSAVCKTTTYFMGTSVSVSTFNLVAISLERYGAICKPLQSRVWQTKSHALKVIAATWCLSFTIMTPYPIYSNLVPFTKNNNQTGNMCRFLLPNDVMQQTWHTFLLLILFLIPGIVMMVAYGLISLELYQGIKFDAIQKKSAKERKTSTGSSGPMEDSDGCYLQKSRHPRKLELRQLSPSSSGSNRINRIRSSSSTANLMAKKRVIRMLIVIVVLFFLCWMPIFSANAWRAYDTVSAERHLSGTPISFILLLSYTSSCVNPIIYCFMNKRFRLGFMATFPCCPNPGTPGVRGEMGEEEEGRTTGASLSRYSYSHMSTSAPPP
Excerpt: (§1) CCK8 [Asp-Tyr(SO3 H)-Met-Gly-Trp-Met-Asp-Phe-NH2 ] was purchased from Beckman Instruments (Palo Alto, Ca/) and Peptide International (Louisville, Ky.). Chymostatin, L-Try-Gly, puromycin, bestatin, EGTA, HEPES and BSA were purchased from Sigma Chemical Co. (St. Louis, Mo.). [^125 I]BH-CCK8 (specific activity, 2200 Ci/mmol) and Aquasol 2 scintillation cocktail were obtained from New England Nuclear (Boston, Ma.). Male guinea pigs, 250 to 325 g, were obtained from Scientific Small Animal Laboratory and Farm (Arlington Heights, Ill.). Collagenase, 300 units per mg, was purchased from Worthington (Frehold, N.J.)
(§2) 1. Guinea Pig Cerebral Cortical and Pancreatic Membrane Preparations
(§3) Cortical and pancreatic membrances were prepared as described (Lin and Miller; J. Pharmacol. Exp. Ther. 232, 775-780, 1985). In brief, cortex and pancreas were removed and rinsed with ice cold saline. Visible fat and connective tissues were removed from the pancreas. Tissues were weighed and homogenized separately in approximately 25 mL of ice-cold 50 mM Tris-HCl buffer, pH 7.4 at 4° C., with a Brinkman Polytron for 30 sec, setting 7. The homogenates were centrifuged for 10 min at 1075×g and pellets were discarded. The supernatants were saved and centrifuged at 38,730×g for 20 min. The resultant pellets were rehomogenized in 25 mL of 50 mM Tris-HCl buffer with a Teflon-glass homogenizer, 5 up and down strokes. The homogenates were centrifuged again at 38,730×g for 20 min. Pellets were then resuspended in 20 mM HEPES, containing 1 mM EGTA., 118 mM NaCl, 5 mM MgCl2, 100 microM bestatin, 3 microM phosphoramidon, pH 7.4 at 22° C., with a Teflon-glass homogenizer, 15 up and down strokes. Resuspension volume for the cortex was 15-18 mL per gm of original wet weight and 60 mL per gm for the pancreas.
(§4) ^125 I]Bolton-Hunter CCK8, and test compounds were diluted with HEPES-EGTA-salt buffer (see above) containing 0.5% bovine serum albumin (BSA). To 1 mL Skatron polystyrene tubes were added 25 microliters of test compounds, 25 miroliters of [^125 I]BH-CCK8, and 200 microliters of membrane suspension. The final BSA concentration was 0.1%. The cortical tissues were incubated at 30° C. for 150 min and pancreatic tissues were incubated at 37° C. for 30 min. Incubations were terminated by filtration using Skatron Cell Harvester and SS32 microfiber filter mats. The specific binding of [^125 I]BH-CCK8, defined as the difference between binding in the absence and presence of 1 microM CCK8, was 85 90% of pancreas. IC50 's were determined from the Hill analysis.

Type-B CCK receptor = target: T2, Type-B CCK receptor (Cavia porcellus, UniProt H0VZC5); test: Radioligand binding, [^125 I]-BH-CCK8, Type-B CCK receptor (cerebral cortical membranes); set-up: species or system guinea pig
T2 construct: cortex and pancreas were removed and rinsed with ice cold saline; from tissue; host or cells: guinea pig cerebral cortex, membranes
T2 sequence (H0VZC5 1-426): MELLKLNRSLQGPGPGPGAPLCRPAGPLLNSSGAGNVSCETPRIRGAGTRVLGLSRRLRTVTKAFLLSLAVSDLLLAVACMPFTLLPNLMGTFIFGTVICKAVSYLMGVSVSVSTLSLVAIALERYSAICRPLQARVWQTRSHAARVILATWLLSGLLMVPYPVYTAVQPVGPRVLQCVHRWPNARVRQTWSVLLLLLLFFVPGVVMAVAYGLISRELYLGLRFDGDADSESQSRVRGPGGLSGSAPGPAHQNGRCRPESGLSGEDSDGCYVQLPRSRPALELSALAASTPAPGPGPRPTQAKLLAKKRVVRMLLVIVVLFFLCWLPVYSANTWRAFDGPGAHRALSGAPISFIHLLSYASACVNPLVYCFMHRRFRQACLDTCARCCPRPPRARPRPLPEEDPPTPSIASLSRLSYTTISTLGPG
Excerpt: as §1, §2, §3
as §4, with “The specific binding of [^125 I]BH-CCK8, defined as the difference between binding in the absence and presence of 1 microM CCK8, was 85 90% of pancreas.” left out

CCK8 = test: Inhibition of CCK induced gastric emptying (charcoal meal); format: in vivo; conditions: 100 mg/kg p.o., CCK8 80 micrograms/kg s.c.
Protocol: Inhibition Of CCK Induced Gastric Emptying
Three fasted mice were dosed (p.o.) with the test compound. CCK8 (80 micrograms/kg s.c.) was administered within 60 minutes and charcoal meal (0.1 mL of 10% suspension) was given orally 5 minutes later. The animals were sacrificed within an additional 5 minutes.
Gastric emptying, defined as the presence of charcoal within the intestine beyond the pyloric sphincter, is inhibited by CCK8. Gastric emptying observed in more than 1 or 3 mice (greater than 1) indicates antagonism of CCK8.

[1] = guinea pig pancreatic membranes, 37° C., 30 min, IC50 from Hill analysis

Compound `CCCCCN(CCCCC)C(=O)[C@@H](CCC(=O)O)NC(=O)c1cc2ccccc2[nH]1` [Example 4, N-(2,-Indolylcarbonyl)-R-Glu-N^α,N^α -di-n-pentylamide] has an IC50 (guinea pig acini) of 22 nM and an IC50 (Type-A CCK receptor) of 20 nM.

`CCCCCN(CCCCC)C(=O)[C@H](CCC(=O)O)NC(=O)c1cc2ccccc2[nH]1` [Example 8, N-(2'-Indolylcarbonyl)-S-Glu-N^α,N^α -di-n-pentylamide] gave an IC50 (guinea pig acini) of 590 nM and an IC50 (Type-A CCK receptor; [1]) of 200 nM.

`CCCCCN(CCCCC)C(=O)[C@@H](CCC(=O)O)NC(=O)c1c[nH]c2ccccc12` [Example 12, N-(3'-Indolylcarbonyl)-R-Glu-N^α,N^α -di-n-penylamide] was tested, and the IC50 (guinea pig acini) was 830 nM, the IC50 (Type-A CCK receptor; [1]) was 260 nM and the IC50 (Type-B CCK receptor) was 3200 nM.

For `CCCCCN(CCCCC)C(=O)[C@@H](CCC(=O)O)NC(=O)c1cnc2ccccc2c1` [Example 15, N-(3'-Quinolylcarbonyl)-R-Glu-N^α,N^α -di-n-pentylamide], the IC50 (guinea pig acini) was 16 nM, the IC50 (Type-A CCK receptor) was 5.4 nM and the IC50 (Type-B CCK receptor) was 3500 nM.

`CCCCCN(CCCCC)C(=O)[C@@H](CC(=O)O)NC(=O)c1cc2ccccc2[nH]1` [Example 19, N-(2'-Indolylcarbonyl)-R-Asp-N^α,N^α -di-n-pentylamide] showed an IC50 (guinea pig acini) of 55 nM, an IC50 (Type-A CCK receptor) of 27 nM and an IC50 (Type-B CCK receptor) of 2600 nM.

Work on `CCCCCN(CCCCC)C(=O)[C@@H](CCC(=O)OC)NC(=O)c1cc2ccccc2[nH]1` [Example 23, N-(2'-Indolylcarbonyl)-(γ-methyl ester)-R-Glu-di-n-pentylamide] yielded an IC50 (guinea pig acini) of 1300 nM, an IC50 (Type-A CCK receptor) of 98 nM and an IC50 (Type-B CCK receptor) of 3600 nM.

For `O=C(O)CC[C@@H](NC(=O)c1cc2ccccc2[nH]1)C(=O)N(Cc1ccccc1)Cc1ccccc1` [Example 29, N-(2'-Indolylcarbonyl)-R-Glu-N^α,N^α -dibenzylamide], the IC50 (guinea pig acini) was 130 nM, the IC50 (Type-A CCK receptor) was 30 nM and the IC50 (Type-B CCK receptor) was 5100 nM.

In the case of `CCCCCN(CCCCC)C(=O)[C@@H](CCC(=O)O)NC(=O)c1ccc2ncccc2c1` [Example 34, N-(6'-Quinolylcarbonyl)-R-Glu-N^α,N^α -d-n-pentylamide], the IC50 (guinea pig acini) is reported as 53 nM, the IC50 (Type-A CCK receptor) is reported as 30 nM and the IC50 (Type-B CCK receptor) is reported as roughly 10000 nM.

In the case of `O=C(O)CC[C@@H](NC(=O)c1cc2ccccc2[nH]1)C(=O)N(c1ccccc1)c1ccccc1` [Example 74, N-(2'-Indolylcarbonyl)-R-Glu-N^α,N^α -diphenylamide], the IC50 (guinea pig acini) is reported as 1200 nM, the IC50 (Type-A CCK receptor) is reported as 210 nM and the IC50 (Type-B CCK receptor) is reported as 2000 nM.

`CCCCCN(CCCCC)C(=O)[C@@H](CCC(=O)O)NC(=O)c1cnc2ccccc2c1` [Example 118, N-(3'-Quinolylcarbonyl)-R-Glu-N^α,N^α -di-n-pentylamideDicyclohexylamine salt] was tested, and the “Gastric emptying observed (mice out of three; more than 1 indicates antagonism of CCK8)” value (CCK8) was “three out of three”.
